The values below come from patent publication US20220274980A1, “PHARMACOLOGICAL INHIBITORS OF THE ENL YEATS DOMAIN” (priority 2019, published 2022).

Like-named read-outs stand apart in the source and are kept apart here.

In experiment [1] the target is T1, ENL YEATS domain (association with H3K27cr) (Homo sapiens, UniProt Q03111).
T1 sequence (Q03111 1-148): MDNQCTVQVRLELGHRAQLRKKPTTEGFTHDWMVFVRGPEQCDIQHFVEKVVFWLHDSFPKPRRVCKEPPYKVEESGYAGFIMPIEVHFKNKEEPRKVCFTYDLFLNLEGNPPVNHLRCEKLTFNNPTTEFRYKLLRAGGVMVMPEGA
In words: biochemical. The method, then:
(§1) Protein Production. Double stranded DNA fragments encoding the protein sequence of ENL YEATS(1-148) were synthesized (IDT DNA) for assembly-based cloning into a modified expression vector backbone derived from pET21a (Novagen). The protein was fused to a StrepII-SUMO and 6×His tag on the amino and carboxy terminus, respectively. Transformed BL21(DE3) cells (New England Biolabs) were grown at 37° C. in 2×YT growth medium to an OD600 of 0.6. Protein expression was induced at 25° C. with the addition of isopropyl-β-D-thiogalactopyranoside (IPTG) to a final concentration of 0.4 mM. The culture was harvested by centrifugation following a 20-hour incubation and subsequently purified by immobilized metal affinity chromatography. Cells were resuspended 50 mM Tris-HCl pH 8.0, 300 mM NaCl, 10% glycerol, 10 mM imidazole, 1 mM DTT containing Complete EDTA-free protease inhibitor (Roche) and lysed by two passes through a MicroFluidizer at 10,000 psi. The lysate was clarified by centrifugation at 16,000 rpm for 30 minutes at 4° C. The supernatant was passed over NiNTA agarose (QIAGEN) and the protein was eluted in 50 mM Tris-HCl pH 8.0, 300 mM NaCl, 10% glycerol, 250 mM imidazole, 1 mM DTT. Fractions containing the ENL YEATS(1-148) fusion protein were buffer exchanged into 100 mM Tris-HCl pH 8.0, 150 mM NaCl, 1 mM EDTA, 1 mM DTT using PD10 desalting columns (GE Life Sciences). Ulp1 protease was added to cleave the StrepII-SUMO fusion and the reaction mixture was incubated overnight at 4° C. The cleavage reaction mixture was loaded onto a StrepTrap column (GE Life Sciences) and ENL YEATS(1-148) was recovered in the flow through. BRD4 BD1 was purchased from Cayman (Cat. No. 11720).
(§2) Homogenous time-resolved FRET (HTRF) histone-binding assays. Both HTRF assays were performed by combining recombinant protein and synthetic histone peptide in assay buffer (25 mM HEPES pH 7, 20 mM NaCl, 0.2% Pluronic F-127, and 0.05% BSA) with 1 nM LanthaScreen Eu-anti-His Tag antibody (ThermoFisher, Cat. No, PV5597) and 8.9 nM SureLight allophycocyanin-streptavidin (Perkin Elmer, APC-SA, Cat. No. CR130-100). ENL YEATS was used at 5 nM and BRD4 BD1 was used at 10 nM. ENL assays were performed with H3(13-32)K27cr (13.3 and 100 nM, respectively), custom synthesized at ABclonal (N-terminal biotin, C-terminal amide); BRD4 BD1 assay was performed with 13.3 nM tetra-acetylated H4 (BioVision, Cat. No. 7144-01). Once all reagents were combined (with or without peptide), 10 μL was dispensed per well into black 384-well low-volume plates (Corning, Cat. No. 3821) and drug was added by pin tool transfer (Biomek FX). Assays were incubated for 2 or more hours before measurement of HTRF signal on a PHERAstar plate reader (BMG Labtech; simultaneous dual emission; excitation=337 nm, emission 1=665 nm, emission 2=620 nm). HTRF signal (ratio of emission 1 to emission 2) from vehicle-treated wells (maximum signal) and no-peptide-control wells (minimum signal) were used to calculate percent inhibition for drug-treated wells.

The target of experiment [2] is T2, BRD4 bromodomain 1 (BD1) (Homo sapiens, UniProt O60885).
T2 construct: Selectivity against BRD4 bromodomain 1 (BD1), measured by HTRF; His; purchased Cayman 11720
In words: BRD4 (BD1)-H4 tetra-acetylated HTRF histone-binding assay. The method, then:
as §1, §2

[3] abbreviates: ENL (YEATS)-H3K27cr HTRF (IC50, μM), Table 1.
Setting [4] is: ENL (YEATS)-H3K27cr HTRF (IC50, μM), Table 2.
[5] abbreviates: read-out: ENL (YEATS)-H3K27cr HTRF (IC50), Table 1.

As a reminder, the IC50 is the concentration that inhibits the measured activity by half. As to `CC(C)NC(=O)c1ccc2nc(-c3ccccc3)cn2c1` [Compound 1], the half-maximal inhibitory concentration (IC50) in experiment [1] (setting [3]) was 4 µM; in experiment [1] (setting [4]), 4 µM; in experiment [2] (Table 1), more than 50 µM; in experiment [2] (Table 2), more than 50 µM.

In the case of `CCc1ccc(-c2cn3cc(C(=O)NC4CC4)ccc3n2)cc1` [Compound 28], the IC50 in experiment [1] (setting [3]) and in experiment [1] (setting [4]) was 5 µM throughout.

For the compound `O=C(NCC1CC1)c1ccc2nc(-c3ccccc3)cn2c1` [Compound 29], the 50% inhibitory concentration (IC50) in experiment [1] (setting [3]) and in experiment [1] (setting [4]) was 6 µM in each case.

For `CC(NC(=O)c1ccc2nc(-c3ccccc3)cn2c1)c1ccccn1` (centres unmarked) [Compound 30], the IC50 in experiment [1] (setting [3]) and in experiment [1] (setting [4]) was 6 µM each time.

For the compound `O=C(NC1CCC(O)CC1)c1ccc2nc(-c3ccccc3)cn2c1` (centres unmarked) [Compound 31], the concentration for half-maximal inhibition (IC50) in experiment [1] (setting [3]) and in experiment [1] (setting [4]) was 7 µM throughout.

Take `O=C(NC1CCC(O)CC1)c1ccc2nc(-c3ccc(F)cc3)cn2c1` (centres unmarked) [Compound 32]: the IC50 in experiment [1] (setting [3]) and in experiment [1] (setting [4]) was 7 µM each time.

As for `O=C(NC1CC1)c1ccc2nc(-c3ccccc3)cn2c1` [Compound 33], the half-inhibitory concentration (IC50) in experiment [1] (setting [3]) and in experiment [1] (setting [4]) was 9 µM throughout.

For the compound `Cc1ccc(-c2cn3cc(C(=O)NC(C)c4cccnc4)ccc3n2)cc1` (centres unmarked) [Compound 35], the IC50 in experiment [1] (setting [3]) and in experiment [1] (setting [4]) was 10 µM each time.

With `CC(C)NC(=O)c1ccc2nc(-c3cccc([N+](=O)[O-])c3)cn2c1` [Compound 36], the IC50 is 3.7 µM in experiment [1] (setting [3]), 3.7 µM in experiment [1] (setting [4]), more than 50 µM in experiment [2] (Table 1) and more than 50 µM in experiment [2] (Table 2).

For `CC(C)NC(=O)c1ccc2nc(-c3ccc([N+](=O)[O-])cc3)cn2c1` [Compound 37], the IC50 was 2.8 µM in experiment [1] (setting [3]), 2.8 µM in experiment [1] (setting [4]), more than 50 µM in experiment [2] (Table 1) and more than 50 µM in experiment [2] (Table 2).

For the compound `CC(C)NC(=O)c1ccc2nc(-c3cccc(N)c3)cn2c1` [Compound 38], the 50% inhibitory concentration (IC50) was 10.7 µM in experiment [1] (setting [3]), 10.7 µM in experiment [1] (setting [4]), more than 50 µM in experiment [2] (Table 1) and more than 50 µM in experiment [2] (Table 2).

Turning to `CC(C)NC(=O)c1ccc2nc(-c3ccc(N)cc3)cn2c1` [Compound 39], the half-maximal inhibitory concentration (IC50) in experiment [1] (setting [3]) was 7.8 µM; in experiment [1] (setting [4]), 7.8 µM; in experiment [2] (Table 1), more than 50 µM; in experiment [2] (Table 2), more than 50 µM.

For the compound `CC(C)NC(=O)c1ccc2nc(-c3cccc(N=S(=O)(F)F)c3)cn2c1` [Compound 40, (3-(6-(isopropylcarbamoyl)imidazo[1,2-a]pyridin-2-yl)phenyl)sulfurimidoyl difluoride], the concentration for half-maximal inhibition (IC50) in experiment [1] (setting [5]) was 3.6 µM; in experiment [2] (Table 1), more than 50 µM; in experiment [2] (Table 2), more than 50 µM.

As to `CC(C)NC(=O)c1ccc2nc(-c3ccc(N=S(=O)(F)F)cc3)cn2c1` [Compound 41, (4-(6-(isopropylcarbamoyl)imidazo[1,2-a]pyridin-2-yl)phenyl)sulfurimidoyl difluoride], the IC50 is 13 µM in experiment [1] (read-out: ENL (YEATS)-H3K27cr HTRF (IC50), Table 2); more than 50 µM in experiment [2] (Table 1); more than 50 µM in experiment [2] (Table 2).

As for `CC(C)NC(=O)c1ccc2nc(-c3cccc(NS(=O)(=O)NCCOCCO)c3)cn2c1` [Compound 42], the half-maximal inhibitory concentration (IC50) in experiment [1] (setting [3]) is 0.55 µM; in experiment [1] (setting [4]) it was 0.55 µM; in experiment [2] (Table 1), more than 50 µM; in experiment [2] (Table 2), more than 50 µM.

Regarding `CC(C)NC(=O)c1ccc2nc(-c3cccc(NS(=O)(=O)NCCCCO)c3)cn2c1` [Compound 43], the IC50 in experiment [1] (setting [3]) and in experiment [1] (setting [4]) was 0.47 µM each time.

As to `CC(C)NC(=O)c1ccc2nc(-c3cccc(NS(=O)(=O)NCCCO)c3)cn2c1` [Compound 44], the IC50 in experiment [1] (setting [3]) is 0.56 µM; in experiment [1] (setting [4]) it was 0.56 µM; in experiment [2] (Table 1), more than 50 µM; in experiment [2] (Table 2), more than 50 µM.

Consider `CC(C)NC(=O)c1ccc2nc(-c3cccc(NS(=O)(=O)NCCCN4CCOCC4)c3)cn2c1` [Compound 45], for which the IC50 in experiment [1] (setting [3]) was 0.55 µM; in experiment [1] (setting [4]), 0.55 µM; in experiment [2] (Table 1) it was more than 50 µM; in experiment [2] (Table 2), more than 50 µM.

For `CC(C)NC(=O)c1ccc2nc(-c3cccc(NS(=O)(=O)NCc4ccc(O)cc4)c3)cn2c1` [Compound 47], the 50% inhibitory concentration (IC50) in experiment [1] (setting [3]) was 0.37 µM; in experiment [1] (setting [4]) it was 0.37 µM; in experiment [2] (Table 1) it was more than 50 µM; in experiment [2] (Table 2), more than 50 µM.

For `CC(C)NC(=O)c1ccc2nc(-c3cccc(NS(=O)(=O)NCCc4ccc(S(N)(=O)=O)cc4)c3)cn2c1` [Compound 48], the 50% inhibitory concentration (IC50) in experiment [1] (setting [3]) is 0.51 µM; in experiment [1] (setting [4]), 0.51 µM; in experiment [2] (Table 1), more than 50 µM; in experiment [2] (Table 2), more than 50 µM.

For `CC(C)NC(=O)c1ccc2nc(-c3cccc(NS(=O)(=O)NCCc4cccs4)c3)cn2c1` [Compound 49], the concentration for half-maximal inhibition (IC50) in experiment [1] (setting [3]) is 1.36 µM; in experiment [1] (setting [4]), 1.36 µM; in experiment [2] (Table 1), more than 50 µM; in experiment [2] (Table 2) it was more than 50 µM.

Regarding `COc1ccc(CNS(=O)(=O)Nc2cccc(-c3cn4cc(C(=O)NC(C)C)ccc4n3)c2)c(OC)c1` [Compound 50], the half-inhibitory concentration (IC50) in experiment [1] (setting [3]) is 0.52 µM; in experiment [1] (setting [4]) it was 0.52 µM; in experiment [2] (Table 1), more than 50 µM; in experiment [2] (Table 2), more than 50 µM.

As to `CC(C)NC(=O)c1ccc2nc(-c3cccc(NS(=O)(=O)NCc4ccc(F)cc4)c3)cn2c1` [Compound 51], the IC50 in experiment [1] (setting [3]) was 1.02 µM; in experiment [1] (setting [4]) it was 1.02 µM; in experiment [2] (Table 1) it was more than 50 µM; in experiment [2] (Table 2), more than 50 µM.

As for `CNS(=O)(=O)Nc1cccc(-c2cn3cc(C(=O)NC(C)C)ccc3n2)c1` [Compound 52], the IC50 in experiment [1] (setting [3]) is 0.39 µM; in experiment [1] (setting [4]), 0.39 µM; in experiment [2] (Table 1), more than 50 µM; in experiment [2] (Table 2), more than 50 µM.

With `CC(C)NC(=O)c1ccc2nc(-c3cccc(NS(=O)(=O)NCCCN4CCCC4=O)c3)cn2c1` [Compound 53], the IC50 in experiment [1] (setting [3]) is 0.88 µM; in experiment [1] (setting [4]) it was 0.88 µM; in experiment [2] (Table 1), more than 50 µM; in experiment [2] (Table 2), more than 50 µM.

On to `COC(=O)[C@@H](Cc1c[nH]c2ccccc12)NS(=O)(=O)Nc1cccc(-c2cn3cc(C(=O)NC(C)C)ccc3n2)c1` [Compound 54], for which the IC50 in experiment [1] (setting [3]) was 0.87 µM; in experiment [1] (setting [4]) it was 0.87 µM; in experiment [2] (Table 1), more than 50 µM; in experiment [2] (Table 2), more than 50 µM.

On to `COC(=O)[C@H]1CCCN1S(=O)(F)=Nc1cccc(-c2cn3cc(C(=O)NC(C)C)ccc3n2)c1` (some centres unmarked) [Compound 55], for which the concentration for half-maximal inhibition (IC50) was 0.95 µM in experiment [1] (setting [3]), 0.95 µM in experiment [1] (setting [4]), more than 50 µM in experiment [2] (Table 1) and more than 50 µM in experiment [2] (Table 2).

Regarding `Cc1cc(-c2cn3cc(C(=O)NC(C)C)ccc3n2)ccn1` [Compound 88], the IC50 in experiment [1] (setting [3]) and in experiment [1] (setting [4]) was 7.05 µM in each case.

With `CC(C)NC(=O)c1ccc2nc(-c3ccccc3C#N)cn2c1` [Compound 89], the 50% inhibitory concentration (IC50) in experiment [1] (setting [3]) and in experiment [1] (setting [4]) was 16.7 µM each time.

Turning to `CC(C)NC(=O)c1ccc2nc(Cn3ccnc3)cn2c1` [Compound 90], the half-inhibitory concentration (IC50) in experiment [1] (setting [3]) and in experiment [1] (setting [4]) was 26.6 µM in each case.

As for `CC(C)NC(=O)c1ccc2nc(-c3ccccn3)cn2c1` [Compound 91], the IC50 in experiment [1] (setting [3]) and in experiment [1] (setting [4]) was 14.8 µM in each case.

On to `CC(C)NC(=O)c1ccc2nc(-c3ccc(CN)cc3)cn2c1` [Compound 92], for which the concentration for half-maximal inhibition (IC50) in experiment [1] (setting [3]) and in experiment [1] (setting [4]) was 3.72 µM in each case.

As for `O=C(NC1C2CC1C2)c1ccc2nc(-c3ccccc3)cn2c1` (centres unmarked) [Compound 125], in experiment [1] (setting [5]), the concentration for half-maximal inhibition (IC50) is more than 50 µM.
